According to patent US7244712B2, “Aminoglycoside antibiotics and methods of using same” (priority 2004, dated 2007):
Read-outs that look alike come from different tables or passages of the source.

Legend:
[1] = molecular target: bacterial 16S A-site rRNA construct (B), D-RNA; assay: Fluorescence anisotropy binding, D-RNA bacterial A-site decoding region construct B
Text: (§1) Experiments were designed to probe the stereospecificity of aminoglycoside binding to the RNA constructs shown in FIG. 9 because these small rRNA constructs mimic ribosomal decoding region RNA function. The three constructs shown include a bacterial 16S A-site rRNA construct (B) (27), its human counterpart (H), and an RNA aptamer (J6f1) selected to bind to the aminoglycoside tobramycin (12,15,16).
(§2) L-aminoglycoside binding to D-RNA sequences are energetically equivalent to binding the enantiotopic D-aminoglycoside to an L-RNA sequence. Initial binding experiments were carried out using enantiomerically pure L-RNA constructs, B, H, and J6f1 (FIG. 9A-C) and D-aminoglycoside compounds. Circular dichroism spectra of the purified constructs confirm the enantiomeric relationship of the corresponding D-RNA and L-RNA constructs (FIGS. 1A-C). The constructs were tested for aminoglycoside binding using the fluorescence anisotropy method described in Example 4. In these measurements, the fluorescent aminoglycoside CRP bearing a rhodamine chromaphore is used to monitor binding to the decoding region constructs (B and H) and fluorescent aminoglycoside CRT bearing a rhodamine chromaphore was used to monitor binding to RNA construct J6f1 (FIG. 9C). See, for example, Wang, Y. and Rando, R. R. Chem. Biol. (1995) 2, 281-290; Hamasaki, K., Killian, J. Cho, J., and Rando, R. R. Biochemistry (1998) 37, 656-663; and Cho, J. and Rando, R. R. (1999) Biochemistry 38, 8548-8554.
(§3) 5-Carboxytetramethylrhodamine-labeled paromomycin (CRP) and tobramycin (CRT) concentrations were determined spectroscopically at 550 nm using a molar extinction coefficient of 6.00×10 4 M −1 cm −1. Fluorescence anisotropy measurements were performed on a Perkin-Elmer LS-50B luminescence spectrometer equipped with a thermostat accurate to ±0.1° C. as indicated previously (Wang, Y., Hamasaki, K., & Rando, R. R. (1997) Biochemistry 36, 768-779). The tracer solution was excited at 550 nm and monitored at 580 nm. The integration time was 5 s. […]
(§4) Equation 1 was used for the determination of the dissociation constant (Kd) for the interactions between RNA or ribosome and CRP. A=A0+DA{(RNA)0+(CRP)0+Kd−({(RNA)0+(CRP)0+Kd}^2−4(RNA)0(CRP)0)½}/2 where A and A0 are the fluorescence anisotropy of CRP in the presence and absence of RNA, respectively, and DA is the difference between the fluorescence anisotropy of CRP in the presence of an extrapolated infinite concentration of RNA minus the fluorescence anisotropy in the absence of RNA. […]
(§5) Equation 2 is used for the calculation of the KD values in the competition binding assay. […] Both Kd and KD were determined by non-linear curve fitting using the equations described above, and are presented as mean values of three independent measurements.

[2] = molecular target: bacterial 16S A-site rRNA construct (B), L-RNA; assay: Fluorescence anisotropy binding, L-RNA bacterial A-site decoding region construct B
Text: as §1, §2, §3, §4, §5

[3] = molecular target: human A-site decoding region construct (H), D-RNA; assay: Fluorescence anisotropy binding, D-RNA human A-site decoding region construct H
Text: as §1, §2, §3, §4, §5

[4] = molecular target: human A-site decoding region construct (H), L-RNA; assay: Fluorescence anisotropy binding, L-RNA human A-site decoding region construct H
Text: as §1, §2, §3, §4, §5

70S ribosome = assay: Fluorescence anisotropy binding to 70S ribosomes; conditions: E. coli ribosomes
Protocol: (§6) After establishing the lack of stereospecificity in the binding of aminoglycosides to the A-site RNA constructs (FIG. 9A-C) where the binding affinity, KD, is about 0.1 μM to about 100 μM, the stereospecificity of aminoglycoside binding to intact ribosomes was determined. Both yeast and E. coli ribosomes were prepared and aminoglycoside binding was measured using fluorescence anisotropy methods. For example, fluorescence anisotropy methods recited in Wang, Y., and Rando, R. R. Chem. Biol. (1995) 2, 281-290; and Wang, Y., Hamasaki, K., and Rando, R. R. Biochemistry (1997) 36,768-779. CRP was used as the binding probe. […] Binding data reported herein for aminoglycoside compounds with eukaryotic yeast ribosomes are similar to binding data for said aminoglycoside compounds with ribosoimes in bacteria and with eukaryotic A-site rRNA constructs.
(§7) 5-Carboxytetramethylrhodamine-labeled paromomycin (CRP) and tobramycin (CRT) concentrations were determined spectroscopically at 550 nm using a molar extinction coefficient of 6.00×10 4 M −1 cm −1. Fluorescence anisotropy measurements were performed on a Perkin-Elmer LS-50B luminescence spectrometer equipped with a thermostat accurate to ±0.1° C. as indicated previously (Wang, Y., Hamasaki, K., & Rando, R. R. (1997) Biochemistry 36, 768-779). The tracer solution was excited at 550 nm and monitored at 580 nm. The integration time was 5 s. For every point, 6 measurements were taken, and their average values were used for calculation. Measurements were carried out in a buffer solution containing 150 mM NaCl, 5 mM KCl, 1 mM CaCl2, 1 mM MgCl2, and 20 mM HEPES (pH 7.5). Prior to measurements, RNA constructs were renatured by incubating in binding buffer {150 mM NaCl, 5 mM KCl, 1 mM CaCl2, 1 mM MgCl2, and 20 mM HEPES (pH 7.5)} for 3 minutes at 90° C. followed by slow cooling to 25° C.
(§8) Equation 1 was used for the determination of the dissociation constant (Kd) for the interactions between RNA or ribosome and CRP. A=A0+DA{(RNA)0+(CRP)0+Kd−({(RNA)0+(CRP)0+Kd}^2−4(RNA)0(CRP)0)½}/2 where A and A0 are the fluorescence anisotropy of CRP in the presence and absence of RNA, respectively, and DA is the difference between the fluorescence anisotropy of CRP in the presence of an extrapolated infinite concentration of RNA minus the fluorescence anisotropy in the absence of RNA. (RNA)0 and (CRP)0 are the initial concentrations of RNA and CRP, respectively.
(§9) Equation 2 is used for the calculation of the KD values in the competition binding assay. (aminoglycoside)0={KD(A−−A)/Kd(A−A0)+1}{(RNA)0−Kd(A−A0)/(A−−A)−(CRP)0(A−A0)/(A−−A)} where KD is the dissociation constant between the RNA and the aminoglycosides; (aminoglycoside)0 is the initial concentration of the aminoglycosides; AL is anisotropy of completely bound tracer. Both Kd and KD were determined by non-linear curve fitting using the equations described above, and are presented as mean values of three independent measurements.
The purification of E. coli (E600) 70S ribosomes was carried out according to the published procedure (Lazaro, E., van den Broek, L. A. G. M., Felix, A. S., Ottenheijm, H. C. J., Ballesta, J. P. G. (1991) Biochemistry 30, 9642-9648). E. coli MRE600 were grown for 12 h in 6L of LB medium (10 g trypton, 5 g yeast extract, 5 g NaCl per 1 L, pH 7.0) at 37° C. Crude ribosomes were precipitated from clarified supernatant by 4 h centrifugation at 25,000 rpm in Beckman SW 28 rotor at 4° C. The ribosome pellets were collected in 5 mL of buffer BR1, containing 10 mM HEPES, pH 7.5, 500 mM ammonium acetate, 100 mM magnesium chloride and 2.5 mM DTT. The ribosome suspension was centrifuged for 20 min at 15000 rpm to be clarified. The clarified sample was loaded over two layers of 20% and 40% sucrose in buffer BR1 and centrifuged for 18 hr at 19000 rpm in Beckman SW28 rotor at 4° C. […]

80S ribosome = assay: Fluorescence anisotropy binding to 80S ribosomes; design: species or system yeast (S. cerevisiae); conditions: yeast ribosomes
Protocol: as §6, §7, §8, §9
The purification of yeast 80S ribosomes from S. cerevisiae strain YSB 758 was carried out according to the published procedure (Verschoor, A., Warner, J. R., Srivastava, S., Grassucci, R. A., & Frank, J. (1997) Nucl. Acid Res. 26, 655-661). S. cerevisiea YSB 758 were grown for 12 hrs at 30° C. in 2L of YPD medium, containing: 20 g bacto peptone, 20 g glucose, 10 g yeast extract and 0.15 g tryptophan per 1 L, pH 7.0. The cells were lysed by 5-10 cycles of 1 min vigorous shaking with glass beads with a vortex, followed by cooling on ice. Clarified cell extract (about 9 mL total, used in 6 portions in 1.5 mL aliqouts) was carefully loaded on top of 2 mL of a cushion, composed of 10% sucrose and 5% ammonium sulfate dissolved in buffer YR1 (20 mM HEPES pH=7.4, 16 mM magnesium chloride, 100 mM potassium chloride, 5 mM DTT, and 0.5 mM EDTA). The ribosomes were collected by centrifugation in Beckman TL100.3 rotor at 75000 rpm for 3 h. The supernatants were carefully discarded and ribosomes were collected in buffer YR1. […]

RNA aptamer J6f1, D-RNA = assay: Fluorescence anisotropy binding, D-J6f1 tobramycin binding aptamer
Text: as §1, §2, §3, §4, §5

RNA aptamer J6f1, L-RNA = assay: Fluorescence anisotropy binding, L-J6f1 tobramycin binding aptamer
Text: as §1, §2, §7, §8, §5

[5] = tested on: E. coli S30 extract, containing 70S ribosomes; assay: In vitro protein translation (CAT mRNA, 35S methionine incorporation); format: biochemical; conditions: quantitation of gel bands, read-out: IC50, concentration producing 50% inhibition of translation
Protocol: Protein translation was performed from chloramphenicol acetyl transferase (CAT) mRNA. […] A commercial E. coli ribosomal suspension was supplemented with an E. coli extract containing the required elements for translation. These include translation factors, tRNAs, and aminoacyl tRNA synthases. Plasmid, T7 RNA polymerase and amino acids were added to the reaction mixture, and both transcription and translation steps were performed in the same vial. The effects of the aminoglycosides on the translation process were evaluated by measuring the incorporation of ^35S methionine in the translated chloramphenicol acetyl transferase protein.
In vitro translation was performed by using PROTEINscript™-PRO (Ambion) kit. […] Reaction mixtures contained appropriate concentrations of antibiotic (neomycin B, D- and L-neamine). The protein was translated from CAT mRNA, transcribed from control DNA template containing CAT gene under control of the T7 promotor. The product, ˜25 kDa chloramphenicol acetyl transferase, was labeled during translation with 1 μCi ^35S methionine (New England Nuclear) per reaction (no cold methionine was added).
Following the translation, the samples were analyzed by electrophoresis on 4-20% SDS mini-gels (Invitrogen) for 1.5 h at 120V. Gels were fixed with 40% methanol/10% acetic acid and exposed to Molecular Dynamics phosphoimager plates, which were read on a Personal FX phosphoimager (Bio-Rad) and quantitated using QuantityOne™ software.

[6] = competition with CRP, read-out: Dissociation constant (KD) with 70S ribosome
[7] = competition with CRP, read-out: Dissociation constant (KD) with 80S ribosome
[8] = competition with CRP, read-out: Dissociation constant of aminoglycoside complex with D-B
[9] = competition with CRP, read-out: Dissociation constant of aminoglycoside complex with L-B
[10] = competition with CRP, read-out: Dissociation constant of aminoglycoside complex with D-H
[11] = competition with CRP, read-out: Dissociation constant of aminoglycoside complex with L-H
[12] = competition with CRT, read-out: Dissociation constant of aminoglycoside complex with L-J6f1
[13] = competition with CRT, read-out: Dissociation constant of aminoglycoside complex with D-J6f1

Compound | Kd (70S ribosome; [6]) [nM] | Kd (80S ribosome; [7]) [nM] | Kd [1, 8] [nM] | Kd [2, 9] [nM] | Kd [3, 10] [nM] | Kd [4, 11] [nM] | Kd (RNA aptamer J6f1, L-RNA; [12]) [nM] | further results
5-carboxytetramethyl rhodamine-labeled paromomycin [CRP] | – | – | – | – | – | – | – | Kd ([1]; direct binding of fluorescent tracer CRP, read-out: Dissociation constant of CRP complex with D-B): 170 ± 17.5 nM; Kd ([2]; direct binding of fluorescent tracer CRP, read-out: Dissociation constant of CRP complex with L-B): 224 ± 22.6 nM; Kd ([3]; direct binding of fluorescent tracer CRP, read-out: Dissociation constant of CRP complex with D-H): 1360 ± 180 nM; Kd ([4]; direct binding of fluorescent tracer CRP, read-out: Dissociation constant of CRP complex with L-H): 900 ± 76 nM; Kd (70S ribosome; direct binding of CRP, read-out: Dissociation constant (Kd) of CRP with 70S Ribosome): 3.7 ± 1.1 nM; Kd (80S ribosome; direct binding of CRP, read-out: Dissociation constant (Kd) of CRP with 80S Ribosome): 3.2 ± 0.9 nM
5-carboxytetramethyl rhodamine-labeled tobramycin [CRT] | – | – | – | – | – | – | – | Kd (RNA aptamer J6f1, D-RNA; direct binding of fluorescent tracer CRT, read-out: Dissociation constant of CRT complex with D-J6f1): 190 ± 11 nM; Kd (RNA aptamer J6f1, L-RNA; direct binding of fluorescent tracer CRT, read-out: Dissociation constant of CRT complex with L-J6f1): 200 ± 28 nM
NCC1OC(OC2C(N)CC(N)C(O)C2O)C(N)C(O)C1O (single isomer, unassigned) [4-Isomer of L-Neamine (ent-3), 4-isomer of L-Neamine] | 6400 ± 870 | 33000 ± 5840 | – | – | – | – | – | –
NCC1OC(OC2C(O)C(N)CC(N)C2O)C(N)C(O)C1O (single isomer, unassigned) [5-Isomer of L-Neamine (ent-2), 5-isomer of L-Neamine] | 1550 ± 110 | 1530 ± 120 | – | – | – | – | – | –
NCC1OC(OC2C(O)C(N)CC(N)C2O)C(N)C(O)C1O [5-Isomer of D-Neamine (2), 5-isomer of D-Neamine] | 910 ± 130 | 2220 ± 110 | – | – | – | – | – | –
NCC1OC(OC2C(N)CC(N)C(O)C2O)C(N)C(O)C1O [6-Isomer of D-Neamine (3), 6-isomer of D-Neamine] | 30700 ± 1700 | 22500 ± 1250 | – | – | – | – | – | –
NC[C@@H]1O[C@H](O[C@H]2[C@@H](O)[C@H](O[C@@H]3[C@@H](O)[C@H](N)C[C@H](N)[C@H]3O[C@H]3O[C@H](CO)[C@@H](O)[C@H](O)[C@H]3N)O[C@@H]2CO)[C@H](N)[C@@H](O)[C@@H]1O [Paromomycin] | 1410 ± 150 | 1970 ± 100 | 1650 ± 350 | 6380 ± 270 | 2200 ± 170 | 2760 ± 260 | 4600 ± 370 | –
[H]/N=C(/N)N[C@H]1[C@H](O)[C@@H](O)[C@H](O[C@@H]2O[C@@H](C)[C@](O)(C=O)[C@H]2O[C@@H]2O[C@@H](CO)[C@H](O)[C@@H](O)[C@@H]2NC)[C@@H](N/C(N)=N\[H])[C@@H]1O [Streptomycin] | – | 30500 | – | – | – | – | – | Dissociation constant (KD) with 70S ribosome (70S ribosome; competition with CRP): did not exhibit measurable binding
NC[C@H]1O[C@H](O[C@H]2[C@H](O)[C@@H](O[C@H]3O[C@H](CO)[C@@H](O)[C@H](N)[C@H]3O)[C@H](N)C[C@@H]2N)[C@H](N)C[C@@H]1O [Tobramycin] | 1760 ± 380 | 3690 ± 310 | 1400 ± 240 | 4390 ± 370 | 1570 ± 210 | 3220 ± 260 | 2180 ± 230 | Kd (RNA aptamer J6f1, D-RNA; [13]): 5.2 ± 0.42 nM; Kd (RNA aptamer J6f1, D-RNA; read-out: KD of tobramycin with RNA aptamer J6f1): 5 nM; Kd (RNA aptamer J6f1, L-RNA; competition with CRT, listed as tobramycin, read-out: Dissociation constant of aminoglycoside complex with L-J6f1): 2200 nM
Neomycin | 140 ± 38 | 110 ± 14 | 52 ± 1.86 | 109 ± 4.6 | 260 ± 3.6 | 1410 ± 14 | 360 ± 21 | Kd (RNA aptamer J6f1, D-RNA; [13]): 5590 ± 1390 nM; Kd (70S ribosome; competition with CRP, listed as neomycin B, read-out: Dissociation constant (KD) with 70S ribosome): ~100 nM; IC50 [5]: 15000 nM
